Data as given in patent publication US6635786B2, “Symmetrically disubstituted aromatic compounds and pharmaceutical compositions for inhibiting poly (ADP-ribose) glycohydrolase, and methods for their use” (Guilford Pharmaceuticals, Inc., priority 2001, dated 2003).

Target: T1, human PARG (Homo sapiens, UniProt Q86W56)
T1 construct: human PARG from amino acid 378 to 976; GST (glutathione-S-transferase, pGEX-4T1) (N); made in house; host or cells: E. coli BL21
Assay: PARG enzymatic assay
Type: biochemical
Settings: recombinant GST-fused human PARG (aa 378-976); 3H-labeled poly-(ADP-ribose) substrate; 23° C., 10 min
Procedure: The potency of PARG inhibition was determined in a PARG enzymatic assay. For each compound, various doses were used to inhibit the PARG reaction. A dose responsible curve was generated to determine the IC50 value and the concentration (in μM) required to achieve 50% inhibition of the reaction.
The PARG assay consisted of (a) preparation of 3H-labeled radioactive PARG as substrate, (b) purification of recombinant PARG, (c) incubation of the compound with the PARG reaction, (d) separation of the product by absorption to glass fiber filter and quantifying the radioactivity of ADP-ribose by scintillation counting.
3H-labeled poly-(ADP-ribose) was made by mixing labeled and unlabeled PAR. Labeled PAR was synthesized in a reaction of 50 mM Tris-HCl (pH 8.0), 4 mM MgCl2, 0.8 μg/mL activated DNA, 3 μM NAD, NEN 3H-NAD (0.1 mCi/mL), 0.8 μl/mL and 1.4 μl/mL Trevigen PARP. The reaction was incubated at room temperature for 60 min, then dialyzed to remove unincorporated 3H NAD using a MWCO 7000 dialysis cassette in 50 mM Phosphate buffer (pH 7.1) at 5° C. over night. Buffer was changed and dialysis continued for 2 h in the morning. The resulting 3H PAR gave 80,000 DPM/10 μL by scintillation counting.
Unlabeled PAR was synthesized in a reaction that consisted of 50 mM Tris-HCl (pH 8.0), 4 mM MgCl2, 0.8 μg/mL activated DNA, 150 μM NAD, and 1.9 μl/mL Trevigen PARP. The reaction was incubated at room temperature for 60 min, and dialyzed to remove unincorporated NAD in a MWCO 7000 cassette using 50 mM Phosphate buffer (pH 7.1) over night at […]. Buffer was changed and dialysis continued for 2 h in the morning. The OD260 of synthesized PAR is […].
The final PAR mix is made by combining 3H-PAR and PAR synthesized @ 150 μM NAD so that the OD260=0.2-0.3 and the DPM/10 μL=10,000 DPM (SA=0.45 Ci/mmole). EDTA was added to 1 mM.
A cDNA fragment encoding the carboxy terminal part of human PARG from amino acid 378 to 976 was amplified by polymerase chain reaction with human thymus cDNA (Clontech, Palo Alto, Calif.) as a template and a pair of primers with the sequences of 5′-[…]-3′ and 5′-[…]-3′. The primers contained the restriction enzyme sites EcoRI and XhoI. The PCR amplified PARG DNA fragment was digested with EcoRI and XhoI, and then ligated to the same sites in pGEX-4T1 plasmid (acquired from Pharmacia/Upjohn Co., Kalamazoo, Mich.) to create pGEX-PARG by using standard molecular biology procedure. The pGEX-PARG was transformed into E. coli strain BL21 for expressing the recombinant protein that has a glutathione-S-transferase at the amino terminus and fused in frame with PARG at the carboxy terminus. The recombinant protein was expressed and purified using glutathione-sephadex 4B beads according to the standard methodology.
A range of potential PARG inhibitors at final concentrations of 200.0 to 0.1 μM were tested, each point done in triplicate. The compounds were dissolved in DMSO resulting in a final DMSO concentration of 5.0%. The reaction was carried out in a volume of 0.1 mL. PARG enzyme was added to a concentration of 0.05 μL/mL to microtiter plates containing approximately 10 μM 3H-labeled poly-(ADP-ribose) in 50 mM Phosphate buffer (pH 7.1), 5 mM B-mercaptoethanol. The reaction was incubated at 23° C. for 10 min. and was stopped with the addition of TCA to a final concentration of 10%.
Enzyme activity was measured by the disappearance of substrate, [poly-(ADP-ribose) polymer], which was quantified as the loss of glass fiber filter adsorbed radioactivity. The reaction was harvested onto Millipore GFC96 well filter plates using the Packard Cell Harvestor. The plates were washed three times with 70% ethanol, air dried, and the radioactivity was measured by scintillation counting.

T1 sequence (Q86W56 378-976): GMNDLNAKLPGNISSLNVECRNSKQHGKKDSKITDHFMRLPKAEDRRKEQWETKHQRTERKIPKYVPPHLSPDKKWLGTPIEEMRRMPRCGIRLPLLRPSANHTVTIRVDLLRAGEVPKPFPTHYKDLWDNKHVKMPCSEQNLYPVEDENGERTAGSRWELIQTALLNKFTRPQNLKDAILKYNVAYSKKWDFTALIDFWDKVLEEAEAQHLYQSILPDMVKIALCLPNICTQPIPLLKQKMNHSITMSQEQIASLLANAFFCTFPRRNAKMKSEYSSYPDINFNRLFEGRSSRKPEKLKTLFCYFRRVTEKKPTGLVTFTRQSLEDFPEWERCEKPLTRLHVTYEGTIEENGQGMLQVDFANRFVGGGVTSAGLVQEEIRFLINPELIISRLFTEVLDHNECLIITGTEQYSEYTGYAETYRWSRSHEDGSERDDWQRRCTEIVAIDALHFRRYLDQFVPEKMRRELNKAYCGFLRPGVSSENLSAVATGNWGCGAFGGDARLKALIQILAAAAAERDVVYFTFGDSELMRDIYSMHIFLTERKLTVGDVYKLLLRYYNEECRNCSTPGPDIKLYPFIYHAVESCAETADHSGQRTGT

| IC50 | Molecule |
| --- | --- |
| 18.9 µM | O=C(OCc1ccc(F)cc1)c1ccc2c(c1)C(Cl)(Cl)c1cc(C(=O)OCc3ccc(F)cc3)ccc1-2 [Example 4, 9,9-Dichloro-9H-fluorene-2,7-dicarboxylic acid bis-(p-fluorobenzyl) ester] |
| 11.2 µM | O=C(OCCc1ccccc1)c1ccc2c(c1)C(Cl)(Cl)c1cc(C(=O)OCCc3ccccc3)ccc1-2 [Example 5, 9,9-Dichloro-9H-fluorene-2,7-dicarboxylic acid bis-(2-phenyl-ethyl) ester] |
| 10 µM | O=C(OCc1ccc(O)c(O)c1)c1ccc2c(c1)C(Cl)(Cl)c1cc(C(=O)OCc3ccc(O)c(O)c3)ccc1-2 [Example 6, 9,9-Dichloro-9H-fluorene-2,7-dicarboxylic acid bis-(3,4-dihydroxy-benzyl) ester] |
| 17.1 µM | O=C(OCCc1cccc2ccccc12)c1ccc2c(c1)C(Cl)(Cl)c1cc(C(=O)OCCc3cccc4ccccc34)ccc1-2 [Example 8, 9,9-Dichloro-9H-fluorene-2,7-dicarboxylic acid bis-(2-naphthalen-1-yl-ethyl) ester] |
| 46.6 µM | O=C(OCCc1ccc2ccccc2c1)c1ccc2c(c1)C(Cl)(Cl)c1cc(C(=O)OCCc3ccc4ccccc4c3)ccc1-2 [Example 9, 9,9-Dichloro-9H-fluorene-2,7-dicarboxylic acid bis-(2-naphthalen-2-yl-ethyl) ester] |
| 27.1 µM | O=C(OCc1ccc2ccccc2c1)c1ccc2c(c1)C(Cl)(Cl)c1cc(C(=O)OCc3ccc4ccccc4c3)ccc1-2 [Example 10, 9,9-Dichloro-9H-fluorene-2,7-dicarboxylic acid bis-(2-naphthalen-2-yl-methyl) ester] |
| 7.9 µM | O=C(OCc1cccc2ccccc12)c1ccc2c(c1)C(Cl)(Cl)c1cc(C(=O)OCc3cccc4ccccc34)ccc1-2 [Example 11, 9,9-Dichloro-9H-fluorene-2,7-dicarboxylic acid bis-(2-naphthalen-1-yl-methyl) ester] |
| 18.3 µM | COc1ccc(CCCCOC(=O)c2ccc3c(c2)C(Cl)(Cl)c2cc(C(=O)OCCCCc4ccc(OC)cc4)ccc2-3)cc1 [Example 12, 9,9-Dichloro-9H-fluorene-2,7-dicarboxylic acid bis-[4-(4-methoxy-phenyl)-butyl]ester] |
| 47.7 µM | O=C(NCc1cccc2ccccc12)c1ccc2c(c1)C(Cl)(Cl)c1cc(C(=O)NCc3cccc4ccccc34)ccc1-2 [Example 14, 2,7 Bis-[N-(naphthalen-1-ylmethyl)-carbamoyl]-9,9-dichloro-9H-fluorene] |
| 24.9 µM | O=C(NCCc1ccccc1)c1ccc2c(c1)C(Cl)(Cl)c1cc(C(=O)NCCc3ccccc3)ccc1-2 [Example 15, 2,7-Bis-[N-(phenethyl)-carbamoyl]-9,9-dichloro-9H-fluorene] |
| 35.2 µM | O=C(NCc1ccccc1)c1ccc2c(c1)-c1ccc(C(=O)NCc3ccccc3)c3cccc-2c13 [Example 23, 3,9-Bis(N-phenylmethyl)fluoranthenedicarboxamide] |
| 29 µM | O=C(NCCOc1ccccc1)c1ccc2c(c1)-c1ccc(C(=O)NCCOc3ccccc3)c3cccc-2c13 [Example 29, 3,9-Bis[N-(2-phenoxy)ethyl]fluoranthenedicarboxamide] |
| 21.1 µM | COc1ccccc1CCNC(=O)c1ccc2c(c1)-c1ccc(C(=O)NCCc3ccccc3OC)c3cccc-2c13 [Example 32, 3,9-Bis{N-[2-(2-methoxy-phenyl)]-ethyl}fluoranthenedicarboxamide] |
| 106 µM | O=C(OCc1ccccn1)c1ccc2c(c1)-c1ccc(C(=O)OCc3ccccn3)c3cccc-2c13 [Example 36, 3,9-Bis(2-pyridinylmethyl)fluoranthenedicarboxylate] |

More lines, now with the values behind:

| Molecule | IC50 |
| --- | --- |
| 3,9-Bis[3-(1-pyrrolo)propionyl]fluoranthene [Example 55] | 27.3 µM |
| 3,9-Bis{N-[(2,3-dimethoxy-phenyl)]-methyl}fluoranthenedicarboxamide [Example 34] | 31.2 µM |
| COC(=O)c1ccc2c(c1)C(Cl)(Cl)c1cc(C(=O)OC)ccc1-2 [Example 7, 9,9-Dichloro-9H-fluorene-2,7-dicarboxylic acid bis-methyl ester] | 45.6 µM |
| O=C(NCc1ccccc1)c1ccc2c(c1)C(=O)c1cc(C(=O)NCc3ccccc3)ccc1-2 [Example 17, 2,7-Bis(N-benzylcarbamoyl)-9-Oxo-9H-fluorene] | 21.8 µM |
| O=C(NCc1ccccc1)c1ccc(C(=O)c2ccc(C(=O)NCc3ccccc3)cc2)cc1 [Example 19, 4,4′-Bis(N-benzyl)carbamoyl-benzophenone] | 75 µM |
| O=C(NCCCc1ccccc1)c1ccc(C(=O)c2ccc(C(=O)NCCCc3ccccc3)cc2)cc1 [Example 20, 4,4′-Bis(N-phenpropyl)carbamoyl-benzophenone] | 40.1 µM |
| O=C(NCCc1ccccc1)c1cccc(C(=O)c2cccc(C(=O)NCCc3ccccc3)c2)c1 [Example 21, 3,3′-Bis(N-phenethyl)carbamoyl-benzophenone] | 65.6 µM |
| O=C(NCCN1CCCCC1)c1ccc2c(c1)-c1ccc(C(=O)NCCN3CCCCC3)c3cccc-2c13 [Example 24, 3,9-Bis[N-(2-piperidin-1-yl)ethyl]fluoranthenedicarboxamide] | 57 µM |
| O=C(NCCN1CCCC1)c1ccc2c(c1)-c1ccc(C(=O)NCCN3CCCC3)c3cccc-2c13 [Example 25, 3,9-Bis[N-(2-pyrrolidin-1-yl)-ethyl]fluoranthenedicarboxamide] | 28.6 µM |
| O=C(NCc1cccnc1)c1ccc2c(c1)-c1ccc(C(=O)NCc3cccnc3)c3cccc-2c13 [Example 26, 3,9-Bis[N-(pyridin-3-yl)methyl]fluoranthenedicarboxamide] | 100 µM |
| O=C(NCCCN1CCOCC1)c1ccc2c(c1)-c1ccc(C(=O)NCCCN3CCOCC3)c3cccc-2c13 [Example 27] | 100 µM |
| COc1ccc(CNC(=O)c2ccc3c(c2)-c2ccc(C(=O)NCc4ccc(OC)c(OC)c4)c4cccc-3c24)cc1OC [Example 28, 3,9-Bis[N-(3,4-dimethoxy-benzyl)]fluoranthenedicarboxamide] | 11.1 µM |
| O=C(NCCc1ccc(Cl)cc1Cl)c1ccc2c(c1)-c1ccc(C(=O)NCCc3ccc(Cl)cc3Cl)c3cccc-2c13 [Example 30, 3,9-Bis[N-[2-(2,4-dichloro-phenyl)]-ethyl]fluoranthenedicarboxamide] | 21.2 µM |
| N#CC1CCC(CNC(=O)c2ccc3c(c2)-c2ccc(C(=O)NCC4CCC(C#N)CC4)c4cccc-3c24)CC1 (centres unmarked) [Example 31] | 30.4 µM |
| COc1cccc(CCNC(=O)c2ccc3c(c2)-c2ccc(C(=O)NCCc4cccc(OC)c4)c4cccc-3c24)c1 [Example 33, 3,9-Bis{N-[2-(3-methoxy-phenyl)]-ethyl}fluoranthenedicarboxamide] | 45.5 µM |
| NS(=O)(=O)c1ccc(CCNC(=O)c2ccc3c(c2)-c2ccc(C(=O)NCCc4ccc(S(N)(=O)=O)cc4)c4cccc-3c24)cc1 [Example 35, 3,9-Bis[N-[2-(4-sulfamoyl-phenyl)]-ethyl]fluoranthenedicarboxamide] | 15.1 µM |
| O=C(CCCl)c1ccc2oc3ccc(C(=O)CCCl)cc3c(=O)c2c1 [Example 38, 2,7-Bis-(3-chloro-propionyl)-xanthen-9-one] | 17 µM |
| O=C(c1cccc2c1S(=O)(=O)c1c(cccc1C(=O)N1CCN(c3ccc(F)cc3)CC1)O2)N1CCN(c2ccc(F)cc2)CC1 [Example 43, 1,9-Bis{N-[4-(4-fluoro-phenyl)-piperazine-carbamoyl]}-10,10-dioxo-phenoxathiin] | 5.7 µM |
